Test results from patent publication US10538564B2, “Peptides having osteoblast growth-promoting activity and use thereof” (PHARMA FOODS INTERNATIONAL CO., LTD., priority 2014, dated 2020).
No end group written: not given here.

What was measured:
[1] = tested on: Sprague-Dawley male rats at three weeks old; assay: Bone growth promoting effect in adolescent rats (tibial growth plate, calcein label); assay type: in vivo, rat; details: FIG. 13
Procedure: One of the synthetic peptides (No. 1) or physiological saline (control) was administered to Sprague-Dawley male rats at three weeks old by oral gavage using a gastric tube once a day for four days. The dose of the synthetic peptide was 1, 10 or 100 mg/kg·day. As a positive control, human growth hormone (hGH) (Norditropin, Standard Commodity Classification No. of Japan: 872412) was subcutaneously administered at 20 μg/kg·day once a day for four days. After the administration on day 4, calcein was subcutaneously administered, and the rats were kept for one day. The rats were euthanized by bloodletting under anesthesia, and the tibiae were harvested. The tissue specimens of the tibial growth plates were prepared, and calcein deposition areas (fluorescent regions) on the tibial growth plates were measured under a fluorescent microscope to determine the longitudinal bone growth.

[2] = tested on: mouse-derived chondrogenic cell line ATDC5; assay: Chondrocyte growth-promoting activity (Cell Counting Kit-8); assay type: cell-based; details: 10 nmol/mL; 72 hours; relative to control taken as 100%; FIG. 14
Procedure: This study was performed using mouse-derived chondrogenic cell line ATDC5 (RIKEN BANK, RBC0565). ATDC5 cells in the logarithmic growth phase were suspended at 3×10^4 cells/mL in Eagle MEM medium supplemented with 5% FCS (fetal calf serum), and 100 μL of the cell suspension was seeded in each well of a 96-well plate and precultured at 5% CO2 and 95% air at 37° C. On the next day, the medium in each well was removed, and medium containing the synthetic peptide (No. 1 or No. 6) at 10 nmol/mL was added. The cells were cultured for 72 hours. As a control, medium without a synthetic peptide was added. The reaction solution ([…]) of Cell Counting Kit-8 (Dojindo Laboratories) was added to each well. The plate was incubated for 3 hours, and the absorbance at 450 nm was measured with a microplate reader. The activity of the synthetic peptides for promoting the growth of chondrocytes was expressed in terms of the relative value, with the absorbance (growth rate) in the control group taken as 100%.

[3] = tested on: mouse-derived cell line ATDC5; assay: Hyaluronic acid production-promoting activity (ELISA of culture supernatant); assay type: cell-based; details: 10 nmol/mL; supernatant after 48 hours of culture; FIG. 15
Procedure: This study was performed using the mouse-derived cell line ATDC5 as used in Example 4. ATDC5 cells in the logarithmic growth phase were seeded at 2×10^4 cells/mL per well in a 24-well plate containing DMEM/F-12 (1:1) medium supplemented with 5% FCS (fetal calf serum), 10 μg/mL transferrin and 3×10^−8 M sodium selenite. The cells were precultured at 5% CO2 and 95% air at 37° C. On the next day, the medium in each well was removed, and medium containing the synthetic peptide (No. 1 or No. 6) at 10 nmol/mL was added. The cells were cultured for […]. As a control, medium without a synthetic peptide was added. After 48 hours of culture, the culture supernatants were collected, and their hyaluronic acid concentrations were measured using QnE Hyaluronic Acid ELISA Assay (Biotech Trading Partners). The concentrations of hyaluronic acid in the culture supernatants of the synthetic peptide addition group were calculated by subtracting the absorbance of the background from the absorbance of the supernatants, and fitting the resulting values to the reference curve prepared using the standard.

[4] = tested on: Sprague-Dawley male rats fed with a low-calcium diet; assay: Bone density recovery test after low-calcium diet (DXA, pQCT); assay type: in vivo, rat; details: oral 1, 10 or 100 mg/kg·day for seven days after one week low-calcium diet; vs control
Procedure: Sprague-Dawley male rats at three weeks old were initially fed with a low-calcium diet (containing 0.05% calcium carbonate) for one week, and then fed with a normal diet (containing 1.2% calcium carbonate). The synthetic peptide (No. 1) or physiological saline (control) was administered to the rats by oral gavage using a gastric tube once a day for seven days. The dose of the synthetic peptide was 1, 10 or 100 mg/kg·day. After the oral administration on day 7, the rats were euthanized by bloodletting under anesthesia, and the femurs and tibiae were harvested. The bone volume and bone morphology of the tibiae and femurs were measured by dual energy x-ray absorptiometry (DXA) and peripheral quantitative computed tomography (pQCT).

[5] = tested on: mature female rats (eight months old); assay: Bone formation-promoting effect in mature rats; assay type: in vivo, rat; details: 20 weeks
Procedure: Synthetic peptide No. 1 was administered to mature female rats (eight months old, ten rats in each group) by oral gavage using a gastric tube once a day for 20 weeks. The dose of the synthetic peptide was 1, 10 or 100 mg/kg·day.

[6] = tested on: aged female rats (13 to 14 months old); assay: Bone formation-promoting effect in aged rats; assay type: in vivo, rat; details: oral 1, 10 or 100 mg/kg·day, 20 weeks
Procedure: Synthetic peptide No. 1 was administered to aged female rats (13 to 14 months old, ten rats in each group) by oral gavage using a gastric tube once a day for 20 weeks. The dose of the synthetic peptide was 1, 10 or 100 mg/kg·day.

[7] = tested on: Crlj:W1 male rats at four weeks old; assay: Bone formation in growth cartilage and secondary cancellous bone, 21-day oral administration; assay type: in vivo, rat; details: 21 days
Procedure: One of the synthetic peptides (No. 1) or water for injection (control) was administered to Crlj:W1 male rats at four weeks old by oral gavage using a gastric tube once a day for 21 days (n=3 in each group). The dose of the synthetic peptide was 100 mg/kg·day. As a positive control, human growth hormone (hGH) (Norditropin, Standard Commodity Classification No. of Japan: 872412) was subcutaneously administered at 500 μg/kg·day once a day for 21 days. As fluorescent labels for the site of bone formation, tetracycline (20 mg/kg) was subcutaneously administered on day 18 after the administration of the peptide or control, and then calcein (10 mg/kg) was subcutaneously administered on day 20 after the administration of the peptide or control. After the administration of the test sample on day 21, the rats were kept under fasting conditions. Twenty-four hours later, the rats were euthanized by bloodletting under anesthesia, and the tibiae were harvested (see FIG. 20). Non-decalcified specimens of the proximal tibiae were prepared and photographed under a fluorescent microscope (BX-53, OLYMPUS). The bone morphology was measured using a morphometry system (Histometry RT digitizer, System Supply Co., Ltd.) and an analysis software (CSS-840 cancellous bone morphometry version, System Supply Co., Ltd.). The longitudinal growth rate (Lo.G.R.) in the epiphyseal cartilage, which is the increase in the height per day, was determined by measuring the distance between the tetracycline label and the calcein label, and dividing the distance by the administration interval between the fluorescent labels (two days).

[8] = No. 1 oral 1, 10 or 100 mg/kg·day, alendronate 300 μg/kg subcutaneous, vs control group

For VNPESEEE [No. 1], the “effect of enhancing the increase in the height of the tibial growth plates, compared with hGH” value ([1]; highest dose (100 mg/kg·day oral) vs hGH 20 μg/kg·day subcutaneous, four days) was “comparable to the effect of the subcutaneous administration of the human growth hormone”, the “increase in the height of the tibial growth plates” value ([1]; oral gavage 1, 10 or 100 mg/kg·day once a day for four days) was “enhanced in a manner consistent with the increase in the dose of the synthetic peptide” and the chondrocyte growth-promoting activity [2] was “showed chondrocyte growth-promoting effect”. The “hyaluronic acid production-promoting activity (hyaluronic acid concentration in culture supernatant)” value [3] was “showed hyaluronic acid production-promoting effect”, the “bone density of the tibiae” value [4] was “tended to be higher in the synthetic peptide administration group than in the control group” and the “length of the tibiae” value [4] was “tended to be higher in the synthetic peptide administration group than in the control group”. The “weight of the tibiae” value [4] was “tended to be higher in the synthetic peptide administration group than in the control group”, the “levels of the increases (femur bone density, cancellous bone volume) compared with alendronate” value [5] was “comparable to those in the alendronate administration group” and the “bone density in the femurs” value [5, 8] was “significantly increased”. The “cancellous bone volume in the proximal tibial metaphysis” value [5, 8] was “significantly increased”, the “bone density in the femurs” value [6] was “increased in a dose-dependent manner” and the “cancellous bone volume in the proximal tibial metaphysis” value [6] was “increased in a dose-dependent manner”. For the same sequence, the “longitudinal growth rate (Lo.G.R.) in the epiphyseal cartilage, vs control group” value ([7]; No. 1 oral 100 mg/kg·day, hGH 500 μg/kg·day subcutaneous, FIG. 21) was “significant promotion of bone growth as compared with the control group”, the “longitudinal growth rate (Lo.G.R.) in the epiphyseal cartilage, vs hGH administration group” value ([7]; oral 100 mg/kg·day, FIG. 21) was “significant as compared with the hGH administration group” and the “secondary cancellous bone volume (bone volume/tissue volume (BV/TV))” value ([7]; oral 100 mg/kg·day, FIG. 22) was “higher secondary cancellous bone volume than the control group and the hGH administration group”. The “osteoblast surface/bone surface (Ob.S/BS)” value ([7]; oral 100 mg/kg·day, FIG. 23) was “high percentage” and the “osteoclast surface/Bone surface (Oc.S/BS)” value ([7]; oral 100 mg/kg·day, FIG. 24) was “low percentage”.
